Experiments:
[1] = system: C. elegans; test: Cumulative percent loss of C. elegans cultured on agar plates over time; type: in vivo
Procedure: Another assay that can be used to measure lifespan extension in C. elegans is to measure the cumulative percent loss of C. elegans cultured on agar plates over time in the presence of GGA (LSG 711). C. elegans were maintained as described above. […] Lifespan extension in the presence of the class IIIa compound where R2 is acetone (LSG 712) was also measured in C. elegans using the cumulative percent loss of C. elegans over time as an assay. The methods described above for the testing of GGA were employed in the testing of LSG 712.

[2] = system: C. elegans; test: Thermotolerance of C. elegans (35 degrees, SYTOX green fluorescence); type: in vivo
Procedure: The thermotolerance experiments were performed by workers at the Buck Institute on Aging in Novato, California under contract with the applicant. The workers at the Buck Institute performed these experiments under the direction and control of the applicant. The method used is that described in Sampayo et al., Aging Cell, 2: 319-326 (2003). In brief, 50 μl of the test compound dilution was added to a 10 ml week old agar plate spotted with 200 μl of concentrated E. coli OP50. The plates were set aside for 2-5 hours to allow the compounds to disperse. Age synchronous worm cultures of wide type (N2 strain) worms were prepared by hypochroride treatment of fertile adults and grown to three days of age at 20° C. The worms were washed off, resuspended in a small volume of S-basal and approximately 1000 worms were spotted onto each compound plate (˜1000 worms per plate) and the plates were incubated at 20° C. for 24 hours. Thermotolerance was measured using a Fluorskan Ascent fluorometer (Thermo Labsystems, MA). The fluorometer temperature was set to 35 °C and the fluorescence was measured in each well every 30 minutes over a 20-24 hour period, with a 20 millisecond integration time for each well. For SYTOX green fluorescence, the excitation wavelength was set to 485 nm and the emission wavelength at 538 nm. Analysis of individual fluorescence curves to determine the time of death was performed using the Fluoroskan Ascent software. Differences in thermotolerance were assessed using the Mantel-Haenszel Logrank test as implemented in Prism (GraphPad Software Inc.). Kaplan-Meier survival curves were generated using Prism survival analysis. […] C. elegans were maintained and handled as described above. The effect of a GGA analogue promoting thermotolerance was tested. The thermotolerance experiments were performed by workers at the Buck Institute on Aging in Novato, California under contract with the applicant. The workers at the Buck Institute performed these experiments under the direction and control of the applicant. […]

[3] = system: C. elegans; test: Age dependent accumulation of lipofuscin pigment in C. elegans (confocal fluorescence); type: in vivo; details: for accumulation of lipofuscin: day 8, control about 65
Procedure: The effect of GGA on the age dependent accumulation of lipofuscin pigment was measured in C. elegans after treatment of worms with various concentrations of the drug. Wild type C. elegans were obtained from the University of Minnesota Caenorhabditis Genetics Center. A 250 mM stock of GGA was dissolved in ethanol and then diluted into 1× M9 OP50 worm food solution. Synchronized eggs were placed on plates containing no drug, 5 μM, 50 μM, or 500 μM GGA and allowed to hatch. On day 8, the worms were washed in 9M buffer and placed on a microscope slide. The amount of lipofuscin pigment was measured using a confocal microscope measuring fluorescence at 488 nm. Fluorescent scans were performed to quantify the amount of lipofuscin pigment. The quantification was normalized to the total area size of the worm in nm^2. The effect of LSG 712 on the age dependent accumulation of lipofuscin pigment was measured in C. elegans after treatment of worms with various concentrations of the drug. Synchronized eggs were placed on plates containing no drug and various concentrations of LSG 712 and allowed to hatch. On day 16, the worms were washed in 9M buffer and placed on a microscope slide. The amount of lipofuscin pigment was measured using a confocal microscope measuring fluorescence at 488 nm.

[4] = system: C. elegans; test: Lifespan of C. elegans under agar culture conditions; type: in vivo
Procedure: Additional studies to determine the effect of GGA on lifespan were performed using agar culture conditions. […] 100 μM GGA produces an 11% mean and 13% maximum percent increase in lifespan (Pvalue=0.039). The methods described above for the testing of GGA were employed in the testing of the class IIIa compound, LSG 712. […] 100 μM LSG 712 produces an 12% mean percent extension in lifespan (Pvalue=0.055).

[5] = system: C. elegans; test: Survival (life expectancy and lifespan) of C. elegans in liquid culture; type: in vivo; details: for life expectancy / lifespan: liquid culture, 25 degrees Celsius; for life expectancy: control 19 days; for lifespan: control 28 days
Procedure: The effect of geranylacetone (GA) and geranylgeranyl acetone (GGA) on the lengthening of lifespan and life expectancy was studied using the model organism, C. elegans, a system that is commonly used to study aging. GA and GGA were tested at three different concentrations of 5 μM 50 μM and 500 μM. The drugs were dissolved in ethanol, and thus ethanol with no drug present was used as the control in these experiments. 100 worms were used to test each concentration of the drug. GA is assumed to be a pure drug at 4.3 M and was dissolved in 100% ethanol. The drug was then diluted in S basal plus cholesterol plus bacteria OP50 such that the final concentration of ethanol on all plates was 1%. GGA was treated as 10% active with an inert carrier. Thus, all treatments were done with a 10-fold increase over the calculated concentration. GGA was suspended in 100% ethanol at 50 degrees Celsius and mixed for about hour after which the supernatant from this mixture was used. The drug was then diluted in S basal plus cholesterol plus bacteria OP50 such that the final concentration of ethanol on all plates was 1%. Wild type N2 C. elegans were obtained from the University of Minnesota Caenorhabditis Genetics Center. All assays were conducted on OP50 (CGCb) using 1× M9 OP50 worm food solution. Survival experiments were carried out in duplicate culture (2 cohorts, 50 worms each) at 25 degrees Celsius. Worms were exposed to the drugs at day 3 of life when set up in liquid culture with OP50 at 10^9 bacteria/ml. Worms were transferred daily for the first six days to remove progeny and to assess mortality. At day 10 and thereafter transfers were done 3 times per week. At each transfer, fresh drug was added to the desired concentration in a manner to achieve a final ethanol concentration of 1%.

[6] = system: serum thioredoxin; test: Serum thioredoxin levels in human volunteers given GGA; type: in vivo; details: three 50 mg capsules per day, pre-treatment about 175 ng/ml
Procedure: To test the effect of GGA in providing oxidative stress protection in humans, 2 human volunteers were given three 50 mg capsules of GGA per day. Serum levels of thioredoxin, a protein important in protection from oxidative stress was measured at various time intervals as shown in FIG. 9.

[7] = Extrapolation of C. elegans survival data to human life expectancy and lifespan
Description: The extension of life span in the nematode can also be directly measured. The inventor has discovered that feeding GGA to nematodes increased both the mean and maximum lifespan of the nematode by about 50 percent. The increase in lifespan found in the nematode is equivalent to an increase in human life expectancy from 75 years to about 112 years and human lifespan from 120 years to 180 years.

[8] = extrapolated from C. elegans survival at 500 μM (FIG. 3)
[9] = feeding to nematodes, summary statement, concentration not given

| Structure (SMILES) | maximum percent increase in protection ([1]; 50 μM) | mean percent increase in protection ([1]; 50 μM) | maximum percent increase in protection ([1]; 100 μM) | mean percent increase in protection ([1]; 100 μM) | mean percent increase in lifespan ([4]; 50 μM) | mean percent increase in lifespan ([4]; 100 μM) | life expectancy ([5]; 5 μM) | lifespan ([5]; 5 μM) | life expectancy ([5]; 50 μM) | lifespan ([5]; 50 μM) | further results |
| --- | --- | --- | --- | --- | --- | --- | --- | --- | --- | --- | --- |
| CC(=O)/C=C/C=C(\C)CC/C=C(\C)CC/C=C(\C)CCC=C(C)C [LSG 712] | 25% | 21% | 20% | 12% | 12% | 12% | – | – | – | – | mean increase in lifespan extension (thermotolerance) ([2]; 100 μM): 19%; reduction in the amount of lipofuscin pigment ([3]; day 16, compared with non-treated control worms, concentration not given): 50% |
| CC(=O)CC/C=C(\C)CCC=C(C)C [GA, geranylacetone] | – | – | – | – | – | – | 21 days | 32 days | 21 days | 30 days | – |
| CC(=O)CC/C=C(\C)CC/C=C(\C)CC/C=C(\C)CCC=C(C)C [GGA, Geranylgeranyl acetone] | −7% | −4% | 12% | 7% | 11% | 11% | 21 days | 33 days | 23 days | 35 days | serum thioredoxin ([6]; one volunteer, after approximately 32 days): about 275 ng/ml; serum thioredoxin ([6]; second volunteer): about 425 ng/ml; equivalent human life expectancy ([7]; equivalent of nematode lifespan increase, from 75 years): about 112 years; equivalent human lifespan ([7]; equivalent of nematode lifespan increase, from 120 years): 180 years; predicted human life expectancy [7, 8]: 85-100 years; predicted human life span [7, 8]: 120-159 years; life expectancy ([5]; 500 μM): 23 days; lifespan ([5]; 500 μM): 37 days; increase of maximum lifespan of the nematode [5, 9]: about 50%; increase of mean lifespan of the nematode [5, 9]: about 50%; maximum increase in lifespan extension (thermotolerance) ([2]; 500 μM): 27%; mean increase in lifespan extension (thermotolerance) ([2]; 500 μM): 29%; accumulation of lipofuscin ([3]; 5 μM): about 15 autofluorescent intensity/area units; accumulation of lipofuscin ([3]; 50 μM): under 5 autofluorescent intensity/area units; accumulation of lipofuscin ([3]; 500 μM): under 10 autofluorescent intensity/area units; lipofuscin accumulation by confocal fluorescence microscopy (FIG. 5) ([3]; qualitative): reduction of lipofuscin accumulation; maximum percent increase in lifespan ([4]; 50 μM): 8%; maximum percent increase in lifespan ([4]; 100 μM): 13% |

Source: patent US20060135623A1, “Decrease in oxidative stress status through the administration of natural products and pharmaceutical drugs” (priority 2004, published 2006)
